Results reported in patent US6043228A, “O^6 -substituted guanine derivatives, a process for their preparation and their use in treating tumor cells” (Cancer Research Campaign Technology Limited, priority 1993, dated 2000).
Entries after “also recorded” stand apart in the source; their conditions may differ. Where two headings read alike, the source gives them in different places.

Columns and labels:
[1] = target: T1, ATase in Raji cells (Homo sapiens, UniProt P16455); assay: Inactivation of ATase activity in mammalian cells: Raji; assay type: cell-based
T1 construct: endogenous in cells; host or cells: Raji
T1 sequence (P16455 1-207): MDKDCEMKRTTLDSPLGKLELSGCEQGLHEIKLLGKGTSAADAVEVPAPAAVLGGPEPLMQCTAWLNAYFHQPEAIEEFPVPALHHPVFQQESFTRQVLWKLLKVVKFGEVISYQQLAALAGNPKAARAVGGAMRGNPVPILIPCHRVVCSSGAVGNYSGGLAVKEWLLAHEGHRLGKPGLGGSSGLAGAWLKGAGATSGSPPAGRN
Procedure: Mammalian cells were cultured under standard conditions. For example, Raji (a human lymphoblastoid cell line from a Burkitt's lymphoma) cells were grown in suspension culture in RPMI medium supplemented with 10% horse serum. A375M cells are human melanoma cells from which the xenografts described below were established following subcutaneous injection into nude mice: WiDr cells are a human colon carcinoma cell line: Hamster+120 cells are a mitozolomide-selected subline of a Chinese hamster lung fibroblast V79 cell line called RJKO: Yoshida cells are a rat carcinosarcoma cell line and YRbus is a busulphan resistant subline thereof: XP cells are an SV40-transformed fibroblast cell line originally from the skin of a Xeroderma piamentosum patient, pHMGhAT2b cells are a clone of these cells that have been transfected with a mammalian cell expression vector containing the human ATase cDNA and pHMGla cells are a clone that have been transfected with the expression vector only (i.e. one not containing the human ATase cDNA). Cell pellets were resuspended in cold (4° C.) buffer I containing 2 μg/ml leupeptin and sonicated for 10 seconds at 12μ peak to peak distance. After cooling in ice, the cells were sonicated for a further 10 seconds at 18μ. […]

[2] = system: Raji cells; assay: Sensitization of Raji cells to BCNU (XTT assay); assay type: cell-based, human
Procedure: Following a 2 hour incubation at 37° C., medium containing either increasing doses of BCNU, temozolomide or equivalent vehicle was added and the cells allowed to grow for 6 days. At this time XTT solution was added and the cells incubated for a further 4 hours at 37° C. The resulting red/orange formazan reaction product was quantified by measuring absorption at 450 nm on a microtitre platereader.

[3] = Sensitivity of mammalian cells to the inactivators alone: XP cells; assay type: cell-based, human; settings: human, xp cells; FIG. 6; read-out: dose required for growth inhibition relative to that required for ATase inactivation
Procedure: (§1) In order to assess the effects on cell growth alone, Xeroderma pigmentosum cells and Chinese Hamster V79 cells were exposed to increasing concentrations (up to 600 μM) of selected inactivators for 2 h at 37°. In some cases, the inactivators were allowed to undergo hydrolysis at 37° C. for 20 hours and then added to Raji cells in order to assess the extent to which the decomposition products of the agents might inhibit cell growth. After 6 days the extent of cell growth was determined as described above.

[4] = system: Xeroderma pigmentosum cells; assay: as above; assay type: cell-based, human; settings: inactivator alone (FIG. 6)
Procedure: as §1

[5] = system: human bone marrow granulocyte macrophage colony forming cells; assay: Sensitization of bone marrow cells to temozolomide (GM-CFC assay); assay type: cell-based; settings: for sensitization of human bone marrow cells to temozolomide, in words: 10 μM inactivator
From the text: For the granulocyte/macrophage colony-forming cell (GM-CFC) assay primary human bone marrow samples were obtained from patients undergoing cardiothoracic surgery. […] The colonies represented precursor cells of the granulocyte/macrophage lineage (huGM-CFC). Survival was expressed as a % of the number of colonies at zero dose temozolomide.

[6] = system: A375 tumour xenografts; assay: Xenograft study: sensitization of A375 tumour xenografts to BCNU; assay type: in vivo, nude mice; settings: inactivator 30 or 60 mg/kg + BCNU 10-25 mg/kg i.p. (FIGS. 9-13)
Procedure: OX6 OPT, England (OLAC mice). […] For this reason lower doses were administered. Cells (10^6) in 100 μl of PBS were injected subcutaneously into the right-hand flank of 8-10 week old nu/nu athymic mice. […] The experimental animals were also weighed every 1-2 days. Measurements continued until tumours in the control animals reached the maximum allowable volume (i.e. 1 cm×1 cm×1 cm).

[7] = system: nude mice; assay: Xenograft study: survival of nude mice given inactivator plus BCNU; settings: FIGS. 9-13
From the text: BALB-C derived athymic male mice (nu/nu athymic) weighing between 25-35 g were obtained from the in-house breeding colony of the Paterson Institute for Cancer Research, Christie Hospital NHS Trust, Wilmslow Road, Manchester M20 9BX, England (ASU mice). The animals were housed in a sterile environment until required for experiments. In one experiment mice were obtained from Harlan-Olac, Harlan UK Limited, Shaw's Farm, Blackthorn, Bicester, Oxon. OX6 OPT, England (OLAC mice).

[8] = system: DBA2 mice; assay: Toxicity of inactivators in combination with BCNU in DBA2 mice; assay type: in vivo, mouse; settings: Table 11
From the text: All agents were given as a single i.p. dose

Row | SMILES | IC50 ([1]; Table 4, Raji cells, 2 hours at 37° C., read-out: Raji I50) [nM] | IC50 ([1]; Table 5, Human Raji, read-out: Inactivation of ATase in Mammalian Cells I50) [nM] | sensitizing Raji cells to growth inhibitory effects of BCNU, in words ([2]; 0.1 μM inactivator (FIG. 2)) | sensitizing Raji cells to growth inhibitory effects of BCNU, in words ([2]; 1.0 μM inactivator (FIG. 2)) | selectivity ratio [3] | growth inhibition / toxicity to XP cells, in words [4] | sensitization of human bone marrow cells to temozolomide, in words ([5]; patient D (FIG. 14)) | sensitization of human bone marrow cells to temozolomide, in words ([5]; patients C & E (FIG. 14)) | sensitization of GM-CFC to cytotoxic effects of temozolomide, in words ([5]; four different patient samples, 10 μM (FIG. 23)) | sensitization of GM-CFCs to toxic effects of temozolomide, in words ([5]; three human bone marrow samples (FIG. 14)) | sensitization of A375 xenografts to BCNU (tumour volume), in words [6] | toxicity in combination with BCNU in nude mice, in words [7] | acute toxicity in combination with BCNU in DBA2 mice, in words [8]
1 | Nc1nc(OCc2cccs2)c2nc[nH]c2n1 [B.4205, 0^6 -thenylguanine] | 20 | 20 | more effective than BeG | equally effective | ≥ 100 | more sensitive than V79 cells; also recorded: toxic | no differential | smaller sensitization effect than O^6 -benzylguanine | only occurred in one patient | little or no sensitization | comparable to O^6 -benzylguanine (BeG) in reducing tumour volume | substantially less toxic in combination with BCNU than BeG in combination with BCNU; also recorded: very little effect | 
2 | Nc1nc(OCc2cc(Br)cs2)c2nc[nH]c2n1 [B.4280, O^6-(4-bromothenyl)guanine] |  |  |  |  |  |  |  |  |  |  |  |  | considerably less acutely toxic than B.4205 or BeG
